{
  "source": "ChEMBL document CHEMBL4627310",
  "about": "“Design, synthesis and biological evaluation of 3-nitro-1,8-naphthalimides as potential antitumor agents” (Bioorg Med Chem Lett, 2020)",
  "key": {"[1]": {"system": "SMMC-7721", "assay": "Antiproliferative activity against human SMMC7721 cells assessed as cell growth inhibition measured after 48 hrs by MTT assay", "format": "functional, cell-based", "details": "SMMC-7721, 48 h"}, "[2]": {"system": "T-24", "assay": "Induction of apoptosis in human T24 cells assessed as live cells at 4.13 uM by AnnexinV/propidium iodide staining based flow cytometry (reference value: 99.1%)", "format": "functional"}, "[3]": {"system": "T-24", "assay": "Induction of apoptosis in human T24 cells assessed as necrotic cells at 2.06 uM by AnnexinV/propidium iodide staining based flow cytometry (reference value: 0.1%)", "format": "functional"}, "[4]": {"system": "T-24", "assay": "Induction of cell cycle arrest in human T24 cells assessed as upregulation of p21 expression at 2 to 8 uM by Western blot analysis", "format": "functional, cell-based"}, "[5]": {"system": "T-24", "assay": "Induction of apoptosis in human T24 cells assessed as late apoptotic cells at 2.06 uM by AnnexinV/propidium iodide staining based flow cytometry (reference value: 0%)", "format": "functional"}, "[6]": {"system": "DNA", "assay": "Binding affinity to supercoiled circular Escherichia coli pBR322 DNA assessed as DNA intercalation at 20 to 100 uM by gel electrophoresis mobility shift assay", "format": "nucleic-acid assay"}, "[7]": {"system": "T-24", "assay": "Cell cycle arrest in human T24 cells assessed as accumulation at G2/M phase at 8.26 uM measured after 24 hrs by propidium iodide staining based fluorescence analysis (reference value: 10.16%)", "format": "functional"}, "[8]": {"system": "T-24", "assay": "Induction of cell cycle arrest in human T24 cells assessed as upregulation of gammaH2AX expression at 2 to 8 uM by Western blot analysis", "format": "functional, cell-based"}, "[9]": {"system": "T-24", "assay": "Induction of apoptosis in human T24 cells assessed as necrotic cells at 8.26 uM by AnnexinV/propidium iodide staining based flow cytometry (reference value: 0.1%)", "format": "functional"}, "[10]": {"molecular_target": "T1, DNA topoisomerase 1 (Homo sapiens) (UniProt P11387)", "T1 sequence (whole entry)": "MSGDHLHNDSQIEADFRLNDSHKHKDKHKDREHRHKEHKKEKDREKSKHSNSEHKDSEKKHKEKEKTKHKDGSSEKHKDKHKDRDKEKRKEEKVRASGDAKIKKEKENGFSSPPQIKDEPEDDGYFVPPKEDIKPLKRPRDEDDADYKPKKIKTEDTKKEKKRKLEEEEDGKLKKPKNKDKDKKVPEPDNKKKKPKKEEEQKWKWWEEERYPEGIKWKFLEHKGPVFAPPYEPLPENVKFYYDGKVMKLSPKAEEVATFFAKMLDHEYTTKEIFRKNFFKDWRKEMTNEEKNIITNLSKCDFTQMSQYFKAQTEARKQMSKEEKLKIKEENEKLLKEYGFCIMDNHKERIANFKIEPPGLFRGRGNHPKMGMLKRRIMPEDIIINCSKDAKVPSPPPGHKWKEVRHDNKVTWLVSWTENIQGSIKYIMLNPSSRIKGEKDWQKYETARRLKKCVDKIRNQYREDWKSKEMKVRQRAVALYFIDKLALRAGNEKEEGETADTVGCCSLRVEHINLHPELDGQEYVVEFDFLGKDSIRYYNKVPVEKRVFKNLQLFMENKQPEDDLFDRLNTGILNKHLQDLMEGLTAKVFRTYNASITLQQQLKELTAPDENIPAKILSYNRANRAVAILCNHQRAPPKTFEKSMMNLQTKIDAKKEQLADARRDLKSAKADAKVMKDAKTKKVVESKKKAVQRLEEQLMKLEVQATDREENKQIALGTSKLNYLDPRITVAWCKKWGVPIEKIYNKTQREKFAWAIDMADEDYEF", "assay": "Inhibition of topoisomerase 1 (unknown origin) mediated DNA relaxation at 20 uM by gel electrophoresis assay"}, "[11]": {"system": "T-24", "assay": "Induction of apoptosis in human T24 cells assessed as early apoptotic cells at 4.13 uM by AnnexinV/propidium iodide staining based flow cytometry (reference value: 0.7%)", "format": "functional"}, "[12]": {"system": "T-24", "assay": "Cell cycle arrest in human T24 cells assessed as accumulation at G1 phase at 4.13 uM measured after 24 hrs by propidium iodide staining based fluorescence analysis (reference value: 66.18%)", "format": "functional"}, "[13]": {"system": "HepG2", "assay": "Anticancer activity against human HepG2 cells xenografted in mouse assessed as tumor growth inhibition by measuring T/C ratio at 5 mg/kg measured at day 14 relative to control", "format": "functional"}, "[14]": {"system": "T-24", "assay": "Induction of apoptosis in human T24 cells assessed as early apoptotic cells at 8.26 uM by AnnexinV/propidium iodide staining based flow cytometry (reference value: 0.7%)", "format": "functional"}, "[15]": {"system": "T-24", "assay": "Induction of apoptosis in human T24 cells assessed as necrotic cells at 4.13 uM by AnnexinV/propidium iodide staining based flow cytometry (reference value: 0.1%)", "format": "functional"}, "[16]": {"system": "T-24", "assay": "Induction of apoptosis in human T24 cells assessed as live cells at 8.26 uM by AnnexinV/propidium iodide staining based flow cytometry (reference value: 99.1%)", "format": "functional"}, "[17]": {"system": "T-24", "assay": "Induction of apoptosis in human T24 cells by AnnexinV/propidium iodide staining based flow cytometry", "format": "functional, cell-based"}, "[18]": {"system": "A549", "assay": "Antiproliferative activity against human A549 cells assessed as cell growth inhibition measured after 48 hrs by MTT assay", "format": "functional, cell-based", "details": "A549, 48 h"}, "[19]": {"assay": "Toxicity in mouse xenografted with human HepG2 cells assessed as effect on body weight at 5 to 15 mg/kg", "format": "organism-based", "details": "in vivo"}, "[20]": {"system": "HepG2", "assay": "Antiproliferative activity against human HepG2 cells assessed as cell growth inhibition measured after 48 hrs by MTT assay", "format": "functional, cell-based", "details": "HepG2, 48 h"}, "[21]": {"system": "T-24", "assay": "Induction of apoptosis in human T24 cells assessed as […] of Bax expression at 2 to 8 uM by Western blot analysis", "format": "functional, cell-based"}, "[22]": {"system": "T-24", "assay": "Induction of apoptosis in human T24 cells assessed as late apoptotic cells at 8.26 uM by AnnexinV/propidium iodide staining based flow cytometry (reference value: 0%)", "format": "functional"}, "[23]": {"assay": "Toxicity in mouse xenografted with human HepG2 cells assessed as adverse effect at 5 to 15 mg/kg", "format": "organism-based", "details": "in vivo"}, "[24]": {"system": "T-24", "assay": "Induction of apoptosis in human T24 cells assessed as […] of Bcl-2 expression at 2 to 8 uM by Western blot analysis", "format": "functional, cell-based"}, "[25]": {"system": "T-24", "assay": "Induction of apoptosis in human T24 cells assessed as late apoptotic cells at 4.13 uM by AnnexinV/propidium iodide staining based flow cytometry (reference value: 0%)", "format": "functional"}, "[26]": {"system": "T-24", "assay": "Induction of cell cycle arrest in human T24 cells assessed as upregulation of cdc-2Ty expression at 2 to 8 uM by Western blot analysis", "format": "functional, cell-based"}, "[27]": {"system": "T-24", "assay": "Induction of apoptosis in human T24 cells assessed as cell budding by AO/EB staining based assay", "format": "functional"}, "[28]": {"system": "T-24", "assay": "Induction of apoptosis in human T24 cells assessed as early apoptotic cells at 2.06 uM by AnnexinV/propidium iodide staining based flow cytometry (reference value: 0.7%)", "format": "functional"}},
  "note": "pIC50: −log10 of the molar value. Active and inactive are the calls of the source. The calls are words filed in the database; no cut-off is given here.",
  "data": [
    {"molecule": "CNCCN1C(=O)c2cccc3cc([N+](=O)[O-])cc(c23)C1=O", "values": [
      {"measurement": "pIC50", "setting": "[1]", "value": 4.86},
      {"measurement": "Activity", "setting": "[2]", "value": 94.3, "unit": "%"},
      {"measurement": "Activity", "setting": "[3]", "value": 0.2, "unit": "%"},
      {"measurement": "Activity", "setting": "[4]", "value": "Active"},
      {"measurement": "Activity", "setting": "[5]", "value": 0, "unit": "%"},
      {"measurement": "Activity", "setting": "[6]", "value": "Active"},
      {"measurement": "Activity", "setting": "[7]", "value": 92.24, "unit": "%"},
      {"measurement": "Activity", "setting": "[8]", "value": "Active"},
      {"measurement": "Activity", "setting": "[9]", "value": 0, "unit": "%"},
      {"measurement": "inhibition", "setting": "[10]", "value": "Active"},
      {"measurement": "Activity", "setting": "[11]", "value": 5.4, "unit": "%"},
      {"measurement": "Activity", "setting": "[12]", "value": 9.9, "unit": "%"},
      {"measurement": "T/C", "setting": "[13]", "value": 66.7, "unit": "%"},
      {"measurement": "Activity", "setting": "[14]", "value": 23.4, "unit": "%"},
      {"measurement": "Activity", "setting": "[15]", "value": 0.1, "unit": "%"},
      {"measurement": "Activity", "setting": "[16]", "value": 76.6, "unit": "%"},
      {"measurement": "Activity", "setting": "[17]", "value": "Dose-dependent effect"},
      {"measurement": "pIC50", "setting": "[18]", "value": 4.90},
      {"measurement": "Activity", "setting": "[19]", "value": "Non-Toxic"},
      {"measurement": "pIC50", "setting": "[20]", "value": 5.04},
      {"measurement": "Activity", "setting": "[21]", "value": "Active"},
      {"measurement": "Activity", "setting": "[22]", "value": 0, "unit": "%"},
      {"measurement": "Activity", "setting": "[23]", "value": "Non-Toxic"},
      {"measurement": "Activity", "setting": "[24]", "value": "Active"},
      {"measurement": "Activity", "setting": "[25]", "value": 0, "unit": "%"},
      {"measurement": "Activity", "setting": "[26]", "value": "Active"},
      {"measurement": "Activity", "setting": "[27]", "value": "Active"},
      {"measurement": "Activity", "setting": "[28]", "value": 0.9, "unit": "%"}
    ]}
  ]
}
